“Also recorded” adds a separate entry of the source. Read-outs that look alike come from different tables or passages of the source.
Columns and labels:
[1] = test system: ERK phosphorylation in MGH051 cells; assay: Western blotting, MGH051 cells, inhibitors added for last day of long-term ceritinib treatment; type: cell-based; details: added for the last day of long-term (8 days) ceritinib treatment, MGH051 (FIG. 6)
Procedure: (§1) FIG. 6. […] MGH051 cells were treated with ceritinib (LDK378) for 4 hours or 8 days.
(§2) The activated states of ALK and HER3 of multiple NSCLC cell lines that harbor EML4-ALK translocations were assessed in both short-term and long-term cultures.

[2] = test system: MGH049 cells; assay: Cell colony formation assay, crystal violet; type: cell-based; details: MGH049, 7 days; for anti-proliferative effect in combination with ceritinib versus ceritinib alone (colony formation): ceritinib 0.5 μM + erlotinib 1 μM (FIG. 7); for cell growth inhibition as single agent (colony formation): ceritinib 0.5 μM or erlotinib 1 μM (FIG. 7)
Excerpt: (§3) FIGS. 7A and 7B. […] For each cell line, all dishes were fixed, stained and photographed at the same time.

[3] = test system: MGH051 cells; assay: Cell colony formation assay, crystal violet; type: cell-based; details: MGH051, 7 days; for anti-proliferative effect in combination with ceritinib versus ceritinib alone (colony formation): ceritinib 0.5 μM + erlotinib 1 μM (FIG. 7); for cell growth inhibition as single agent (colony formation): ceritinib 0.5 μM or erlotinib 1 μM (FIG. 7)
Excerpt: as §3

[4] = test system: AKT phosphorylation in MGH051 cells; assay: Western blotting, MGH051 cells, ceritinib 4 hours or 8 days, inhibitors added for last day; type: cell-based; details: MGH051 (FIG. 6); for rebound in AKT phosphorylation: added for the last day of long-term (8 days) ceritinib treatment
Procedure: as §1, §2

[5] = test system: MGH051 cells
Procedure: (§4) These cell lines harbor EML4-ALK rearrangements.
(§5) Three replicate plates were set up for each cell line and drug compound, with or without ceritinib. A representative dose response curve was then calculated by taking the mean across the 3 replicates with and without ceritinib. Proliferation inhibition values were normalized to the measured inhibition value at zero dose of the compound, with and without ceritinib.
(§6) Experiments performed with cell lines MGH049 and MGH051 are depicted on FIG. 3 and FIG. 4, respectively.

[6] = test system: MGH049 cells; assay: Cell proliferation (CellTiter-Glo), EGFR inhibitors with or without ceritinib; type: cell-based
Procedure: as §4, §5, §6

[7] = test system: H2228 tumors; assay: H2228 NSCLC xenograft efficacy; type: in vivo, female SCID-beige mice
Procedure: In this experiment female SCID Beige mice bearing H2228 tumors were used. At start, the mice were 8 to 12 weeks of age. First, the mice were inoculated with 4 mm^3 H2228 tumor fragments by subcutaneous injection in flank. The fragments were dipped in Matrigel before implanting. When tumors reached an average size of 100-150 mm^3 the treatment according to the scheme below commenced. The body weight was measured daily for the first 5 days and then biweekly until end. The tumor was measured biweekly by caliper until end. […] Dosing with the compounds ended on study day 32. After this the tumor size was monitored during an observation phase for re-growth.
The average tumor volume data in the graphs is not complete through the end of the study for all groups. Once a group lost more than 50% of the animals due to death or ethical sacrifice, the average tumor volume for the remaining animals in these groups was no longer graphed.

[8] = test system: HER3 activation in MGH051 cells; assay: Western blotting, MGH051 cells, inhibitors added for last day of long-term ceritinib treatment; type: cell-based; details: added for the last day of long-term (8 days) ceritinib treatment, MGH051 (FIG. 6)
Procedure: FIG. 6. Addition of HER3 and EGFR inhibitors represses the rebound in AKT phosphorylation. MGH051 cells were treated with ceritinib (LDK378) for 4 hours or 8 days.
The activated states of ALK and HER3 of multiple NSCLC cell lines that harbor EML4-ALK translocations were assessed in both short-term and long-term cultures. […] In addition, the levels of pHER3 correlated with the duration of the treatments (FIG. 5). Next, we assessed the activation of the downstream signaling of HER3 and the repression of ceritinib-induced HER3 activation using various inhibitors.

[9] = test system: NCI-H2228 cells; assay: Secretome screening, CellTiter-Glo cell proliferation in presence of ceritinib; type: cell-based; details: 0.5 μM ceritinib, conditioned supernatant, 96 hours
Procedure: NCI-H2228 was obtained from ATCC. The cell lines harbored EML4-ALK rearrangements. NCI-H2228 cells were cultured in RPMI-1640 (ATCC Catalog #30-2001) supplemented with 15% FBS.
Secretome screening was performed as described previously (Lito P, Pratilas C A, et al. Cancer Cell 2012; 22: 668-82). In brief, 317 cDNA constructs that represent 220 unique secreted proteins were reverse transfected into HEK293T cells individually and incubated 4 days to allow accumulation of secreted proteins in supernatant. The supernatant was transferred to the assay cells, namely NCI-H2228 cells, followed by addition of ceritinib to a final concentration of 0.5 μM. Cell proliferation was measured using CellTiter-Glo after 96 hours. Cells treated with DMSO in the absence of conditioned media and with ceritinib alone were used as controls.
The Cell Titer Glo assay was done with H2228 cell line. The cell line stems from adenocarcinoma; non-small cell lung cancer. Cell Titer Glo assay is a Cell Viability Assay that determined the number of viable cells in culture based on quantitation of the ATP present, which signaled the presence of metabolically active cells.
“Ceritinib no ligand” represents cells that were treated with ceritinib only (absence of any ligand) and represents the impact of ceritinib on cell viability. […]

[10] = test system: HER3 phosphorylation in ALK positive NSCLC cell lines; assay: Western blotting of whole cell lysates after short-term and long-term ceritinib treatment; type: cell-based; details: long-term treatment, 4 ALK positive cell lines (FIG. 5)
Procedure: FIG. 5. […] Cells were harvested after short-term and long-term ceritinib (LDK378) treatment, and whole cell lysates were analyzed by Western blotting.
as §2

[11] = test system: MGH049 cells; assay: Cell proliferation assay (CellTiter-Glo), ceritinib dose response; type: cell-based; details: 144 h; 0.3 μM ceritinib, 6 days, MGH049, relative to median DMSO signal; read-out: percent inhibition of cell proliferation
Procedure: (§7) MGH049 and MGH051 were obtained from Massachusetts General Hospital (Friboulet L, Li N, et al. Cancer Discovery 2014; 4: 662-73). These cell lines harbor EML4-ALK rearrangements. MGH049 and MGH051 were cultured in DMEM (ATCC Catalog #30-2002) supplemented with 10% FBS.
(§8) To determine the dose-response relationship between the dose of ceritinib and the magnitude of its effect on cell proliferation, 1K MGH049 and 4K MGH051 cells were plated in each well of 384 well-plates, and grown for 24 hours prior to treatment. Cells were then treated with DMSO or ceritinib at concentrations ranging from 4 nM to 1 μM (3-fold dilutions). After 6 days, cell proliferation was measured using the CellTiter-Glo luminescent cell viability assay. Percent inhibition was calculated relative to median DMSO signal.

[12] = test system: MGH051 cells; assay: as above; type: cell-based; details: 144 h; 0.3 μM ceritinib, 6 days, MGH051, relative to median DMSO signal; read-out: percent inhibition of cell proliferation
Procedure: as §7, §8

With `C#Cc1cccc(Nc2ncnc3cc(OCCOC)c(OCCOC)cc23)c1` [erlotinib, N-(3-ethynylphenyl)-6,7-bis-(2-methoxyethoxy)quinazolin-4-amine] the ERK phosphorylation [1] was “enhanced inhibition of ERK phosphorylation”, the “anti-proliferative effect in combination with ceritinib versus ceritinib alone (colony formation)” value [2] was “greater anti-proliferative effect” and the “anti-proliferative effect in combination with ceritinib versus ceritinib alone (colony formation)” value ([2]; listed as Erlotinib) was “enhances the anti-proliferation activity of ceritinib”. The “cell growth inhibition as single agent (colony formation)” value (“cell growth inhibition as single agent” below) [2] was “no effect on cell growth”, the “anti-proliferative effect in combination with ceritinib versus ceritinib alone (colony formation)” value [3] was “greater anti-proliferative effect” and the “anti-proliferative effect in combination with ceritinib versus ceritinib alone (colony formation)” value ([3]; listed as Erlotinib) was “enhances the anti-proliferation activity of ceritinib”. For the same molecule, the “cell growth inhibition as single agent” value [3] was “no effect on cell growth” and the “rebound in AKT phosphorylation” value [4] was “able to suppress the rebound in AKT phosphorylation”.

In the case of `CS(=O)(=O)CCNCc1ccc(-c2ccc3ncnc(Nc4ccc(OCc5cccc(F)c5)c(Cl)c4)c3c2)o1` [lapatinib, N-[3-chloro-4-(3-fluorobenzyloxy)phenyl]-6-{5-[4-(methylsulfonyl)-2-azabutyl]-2-furyl} quinazolin-4-amine], the “cell growth, EGFR inhibitor in combination with ceritinib” value (“cell growth, EGFR inhibitor” below) [5] is reported as “synergistically reduced cell growth” and the “cell growth, EGFR inhibitor” value [6] is reported as “synergistically reduced cell growth”.

With “Antibody A: anti-HER3 antibody comprising the sequences of MOR10703 as defined in Table 1” the “efficacy (tumor volume) of LDK378 in combination with the antibody” value ([7]; LDK378 25 or 50 mg/kg po qd × 32 + cetuximab 20 mg/kg ip biwk × 5 or Ab A 25 mg/kg ip qod × 17 (FIGS. 8A, 8B)) was “significantly improved efficacy of LDK378”, the “efficacy of ceritinib with Antibody A and cetuximab combined (triple combination)” value ([7]; ceritinib + Antibody A + cetuximab) was “significantly improve the efficacy of ceritinib” and the “activation of HER3” value [8] was “markedly suppressed”. For the same molecule, the “rebound in AKT phosphorylation” value [4] was “markedly suppressed”.

With `Cc1cc(C(=O)Nc2nc3cccc(Cl)c3n2[C@@H]2CCCCN(C(=O)/C=C/CN(C)C)C2)ccn1` [compound A, (R,E)-N-(7-chloro-1-(1-(4-(dimethylamino)but-2-enoyl)azepan-3-yl)-1H-benzo[d]imidazol-2-yl)-2-methylisonicotinamide] the “cell growth, EGFR inhibitor” value ([5]; in combination with 0.5 μM ceritinib, 6 days, MGH051 (FIG. 4)) was “synergistically reduced cell growth” and the “cell growth, EGFR inhibitor” value ([6]; in combination with 0.5 μM ceritinib, 6 days, MGH049 (FIG. 3)) was “synergistically reduced cell growth”.

With `Cc1cc(Nc2ncc(Cl)c(Nc3ccccc3S(=O)(=O)C(C)C)n2)c(OC(C)C)cc1C1CCNCC1` [ceritinib, 5-chloro-N^2-(2-isopropoxy-5-methyl-4-(piperidin-4-yl)phenyl)-N^4-[2-(propane-2-sulfonyl)-phenyl]-pyrimidine-2,4-diamine] the “reversal of growth inhibitory effect of ceritinib by secreted ligands (cell viability)” value [9] was “Ligands for EGFR and ERBB3 clearly overcame the inhibitory effect of ceritinib”, the “sensitivity of cell line to ceritinib alone” value ([6]; MGH049, no ALK resistance mutations) was “resistant” and the HER3 phosphorylation [10] was “induction of HER3 phosphorylation; also recorded: up-regulation of HER3 phosphorylation”. The inhibition at 0.3 µM [11] was 20%, the inhibition at 0.3 µM [12] was 70% and the “cell growth inhibition as single agent” value [2] was “less effective”. For the same molecule, the “cell growth inhibition as single agent” value [3] was “partially effective”, the AKT phosphorylation ([4]; ceritinib 8-day treatment) was “profound rebound in AKT phosphorylation” and the AKT phosphorylation ([4]; ceritinib initial (4 hours) treatment) was “initial inhibition of AKT phosphorylation”.

With `CN(C)C/C=C/C(=O)Nc1cc2c(Nc3ccc(F)c(Cl)c3)ncnc2cc1O[C@H]1CCOC1` [afatinib, (S,E)-N-(4-((3-chloro-4-fluorophenyl)amino)-7-((tetrahydrofuran-3-yl)oxy)quinazolin-6-yl)-4-(dimethylamino)but-2-enamide] the ERK phosphorylation [1] was “enhanced inhibition of ERK phosphorylation” and the “rebound in AKT phosphorylation” value [4] was “able to suppress the rebound in AKT phosphorylation”.
